Values joined by “and” are separate entries in the source; they are usually repeats but may differ in a detail not shown here. Equal values may be shown once.
Legend:
5-lipoxygenase (5-LO) = target: T1, 5-lipoxygenase (5-LO) (Homo sapiens, UniProt P09917); experiment: In vitro inhibition of 5-lipoxygenase in homogenised leukocytes (LTB4 radioimmunoassay); format: biochemical; conditions: homogenised leukocytes of aspirin-free volunteers, 5 μM arachidonic acid, 37° C., 5 minutes
T1 construct: The leukocytes were homogenised and 5 μM arachidonic acid added; from tissue; host or cells: homogenised blood leukocytes of normal aspirin-free volunteers
T1 sequence (P09917 1-674): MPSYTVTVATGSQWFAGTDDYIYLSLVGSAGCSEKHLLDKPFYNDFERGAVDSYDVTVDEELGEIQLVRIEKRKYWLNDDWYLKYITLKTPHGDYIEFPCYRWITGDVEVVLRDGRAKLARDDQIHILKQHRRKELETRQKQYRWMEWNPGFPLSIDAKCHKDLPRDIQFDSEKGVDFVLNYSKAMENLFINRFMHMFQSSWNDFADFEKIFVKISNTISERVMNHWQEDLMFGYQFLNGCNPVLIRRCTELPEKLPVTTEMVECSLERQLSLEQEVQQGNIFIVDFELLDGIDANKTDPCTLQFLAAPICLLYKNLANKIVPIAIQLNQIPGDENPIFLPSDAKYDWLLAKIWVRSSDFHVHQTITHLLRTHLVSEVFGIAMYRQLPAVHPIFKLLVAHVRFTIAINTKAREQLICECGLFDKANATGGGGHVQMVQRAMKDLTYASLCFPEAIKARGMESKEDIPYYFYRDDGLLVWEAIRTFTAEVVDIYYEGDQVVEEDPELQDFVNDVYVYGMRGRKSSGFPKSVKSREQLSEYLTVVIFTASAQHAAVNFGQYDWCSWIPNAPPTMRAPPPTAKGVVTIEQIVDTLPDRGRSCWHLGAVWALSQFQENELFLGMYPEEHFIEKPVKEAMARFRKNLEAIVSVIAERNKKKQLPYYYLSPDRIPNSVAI
Procedure: (§1) C. In vitro inhibition of 5-lipoxygenase (5-LO) and cyclo-oxygenase (CO) Blood from normal aspirin-free volunteers was centrifuged to separate leukocytes from red cells and platelets. The leukocytes were homogenised and 5 μM arachidonic acid added, followed by incubation at 37° C. for 5 minutes. The reaction was stopped by boiling and radioimmunoassays conducted for LTB4 and TXB2. Results were calculated as IC50 (μM) activity against each enzyme.

[1] = tested on: stimulated LTB4 synthesis; experiment: Stimulated LTB4 synthesis ex vivo after administration to rabbits of 10 mg/kg PO; format: in vivo
Procedure: B. Time for stimulated LTB4 synthesis ex vivo to return to 50% of original value after administration to rabbits of 10 mg/kg PO

[2] = Plasma concentration after administration to rabbits of 10 mg/kg PO; format: in vivo; conditions: rabbit; for Cmax: read-out: Maximum plasma concentration; for half-life: read-out: time for plasma concentration to fall to 50% of maximum value obtained after administration (converted)
Procedure: A. Maximum plasma concentration obtained after administration to rabbits of 10 mg/kg PO and time for plasma concentration to fall to 50% of maximum value obtained after administration

cyclo-oxygenase (CO) = target: T2, cyclo-oxygenase (CO) (Homo sapiens, UniProt P23219); experiment: In vitro inhibition of cyclo-oxygenase in homogenised leukocytes (TXB2 radioimmunoassay); format: biochemical; conditions: homogenised leukocytes of aspirin-free volunteers, 5 μM arachidonic acid, 37° C., 5 minutes
T2 construct: The leukocytes were homogenised and 5 μM arachidonic acid added; from tissue; host or cells: homogenised blood leukocytes of normal aspirin-free volunteers
Procedure: as §1

T2 sequence (P23219 24-599): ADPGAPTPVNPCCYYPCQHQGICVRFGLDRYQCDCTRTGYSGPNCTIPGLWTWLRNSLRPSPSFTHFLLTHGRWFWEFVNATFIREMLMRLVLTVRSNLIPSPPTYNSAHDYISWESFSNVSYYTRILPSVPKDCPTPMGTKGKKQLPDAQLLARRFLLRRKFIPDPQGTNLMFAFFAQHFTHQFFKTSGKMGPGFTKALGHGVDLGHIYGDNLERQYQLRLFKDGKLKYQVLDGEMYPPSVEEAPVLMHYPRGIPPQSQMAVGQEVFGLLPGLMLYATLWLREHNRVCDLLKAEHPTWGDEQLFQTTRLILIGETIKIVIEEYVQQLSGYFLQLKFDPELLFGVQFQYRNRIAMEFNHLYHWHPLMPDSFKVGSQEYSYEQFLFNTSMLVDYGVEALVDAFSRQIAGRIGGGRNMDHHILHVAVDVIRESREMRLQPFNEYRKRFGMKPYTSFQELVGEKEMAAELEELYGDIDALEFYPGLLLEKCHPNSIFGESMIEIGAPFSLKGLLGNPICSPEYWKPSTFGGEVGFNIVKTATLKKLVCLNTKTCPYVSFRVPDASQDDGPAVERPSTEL

SMILES	IC50 (5-lipoxygenase (5-LO))	Cmax [2] [ng/mL]	half-life [2] [h]	IC50 (cyclo-oxygenase (CO)) [nM]	Time for stimulated LTB4 synthesis ex vivo to return to 50% of original value [1] [h]
CC(=O)N(O)C(C)/C=C/c1cccc(Oc2ccccc2)c1 (stereo not drawn) [(E)-N-[1-methyl-3-(3-phenoxyphenyl)prop-2-enyl]acetohydroxamic acid]	80 nM	460	10.7	1000	22.6
CC(=O)N(O)C/C=C/c1cccc(Oc2ccccc2)c1 [(E)-N-[3-(3-phenoxyphenyl)prop-2-enyl]acetohydroxamic acid, reference compound]	–	–	–	1000	–
CC(=O)N(O)C(C)/C=C/c1cccc(Oc2cc(Cl)cc(Cl)c2)c1 (stereo not drawn) [(E)-N-{1-Methyl-3-[3-(3,5-dichlorophenoxy)phenyl]prop-2-enyl}acetohydroxamic acid]	400 nM	1900	> 24	–	> 24
CC(=O)N(O)C(C)/C=C/c1cccc(Oc2ccc(F)cc2F)c1 (stereo not drawn) [(E)-N-{1-Methyl-3-[3-(2,4-difluorophenoxy)phenyl]prop-2-enyl}acetohydroxamic acid]	–	–	–	–	20.7

The next lines start with results.

IC50 (5-lipoxygenase (5-LO))	Cmax [2] [ng/mL]	half-life [2] [h]	IC50 (cyclo-oxygenase (CO)) [nM]	SMILES	Time for stimulated LTB4 synthesis ex vivo to return to 50% of original value [1] [h]
500 nM	160	> 24	–	CC(=O)N(O)C(C)/C=C/c1cccc(Oc2ccc(C(C)(C)C)cc2)c1 (stereo not drawn) [(E)-N-{1-Methyl-3-[3-(4-t-butylphenoxy)phenyl]prop-2-enyl}acetohydroxamic acid]	2.4
110 nM	840	> 24	> 1000	CC(=O)N(O)C(C)/C=C/c1cccc(Oc2cccc(C(F)(F)F)c2)c1 (stereo not drawn) [(E)-N-{1-Methyl-3-[3-(3-trifluoromethylphenoxy)phenyl]prop-2-enyl}acetohydroxamic acid]	> 24
10 nM	710	> 24	180	CC(=O)N(O)C(C)/C=C/c1cccc(Oc2ccc(Br)cc2)c1 (stereo not drawn) [(E)-N-{1-Methyl-3-[3-(4-bromophenoxy)phenyl]prop-2-enyl}acetohydroxamic acid]	> 24
–	70	4.3	–	CC(=O)N(O)C(C)/C=C/c1cccc(Oc2ccc(C)cc2)c1 (stereo not drawn) [(E)-N-{1-Methyl-3-[3-(4-methylphenoxy)phenyl]prop-2-enyl}acetohydroxamic acid]	–
80 nM	930	> 24	> 1000	CC(=O)N(O)C(C)/C=C/c1cccc(Oc2ccc(Cl)cc2)c1 (stereo not drawn) [(E)-N-{1-methyl-3-[3-(4-chlorophenoxy)phenyl]prop-2-enyl}acetohydroxamic acid]	> 24
200 nM and 300 nM	1070	11.3	–	CC(=O)N(O)C(C)/C=C/c1cccc(Oc2ccc(F)cc2)c1 (stereo not drawn) [(E)-N-{1-methyl-3-[3-(4-fluorophenoxy)phenyl]prop-2-enyl}acetohydroxamic acid]	24.0

From patent US4988733A, “N-[1-(3-phenoxyphenyl)ethyl]acetohydroxamic acid compounds which are useful anti-inflammatory agents” (Burroughs Wellcome Co., priority 1987, dated 1991)
